Assay results reported in patent publication US20220273590A1, “COMPOUNDS FOR PREVENTION AND TREATMENT OF POST-OPERATIVE COGNITIVE DYSFUNCTION” (ABREXA PHARMACEUTICALS, INC., priority 2019, published 2022).

How the values were obtained:
[1] = Plasma levels of J147 at the time of surgery; format: in vivo, Wistar rats; details: absence of an appropriate peak taken as zero
Protocol: (§1) Male Wistar rats (˜350 g) were randomly divided into 4 experimental groups; non-surgery; control abdominal surgery; surgery+acute J147 treatment (7 mg/rat by gavage, 4-5 hours before surgery); surgery+chronic J147 (500 mg/kg food, 1 week before surgery until the end of the study). Timed blood samples were collected. Days 9-11 post surgery, general behavior (Open field: OF) and cognitive performance (Novel Object/Novel Location Recognition: NOR/NLR; Morris Water Maze: MWM) were tested. Day 14, rats were sacrificed and blood and brain tissue were collected for further analyses. (Neuro)inflammation was examined by circulating cytokine levels and microglia activation in the brain.
One week before surgery, chronic treatment J147 treatment started and continued until the end of the experiment. The day of surgery, rats for acute treatment received their J147 (4-5 hours before surgery) by gavage, while the designated control rats received vehicle gavage. Rats were subjected to abdominal surgery, and allowed to recover. After that rats were housed individually. […] The first week post-surgery, rats were weighed daily and food intake was measured. […]
For chronic oral treatment, J147 was added to the food (Teklad 2018, Envigo) at a concentration of 500 mg/kg. […] After surgery food intake was measured daily during the last hour of the light phase. […]

animal model of POCD = experiment: Overall outcome in the animal model of POCD (abdominal surgery); format: in vivo, Wistar rats
Protocol: as §1, with “In this study, the effects of J147 in an animal model of POCD were investigated. Male” for “Male”, “brain. Within each cohort rats (n=12 per cohort) were equally divided over four experimental groups, including non-surgery, control surgery, surgery+acute J147 and surgery+chronic J147. Half of the non-surgery and control surgery groups received vehicle gavage and served as control for acute treatment. One week before surgery, chronic treatment J147 treatment started and continued until the end of the experiment. […] The first week post-surgery, rats were weighed daily and food intake was measured. […]” for “brain.”

mean concentration of J147 in plasma during surgery ([1]; acute J147, 7 mg/rat by gavage 4-5 hours before surgery): 3.103 ng/mL | concentration at 1 week ([1]; male, Wistar, rat, plasma, oral, chronic J147, 500 mg/kg food from 1 week before surgery, read-out: mean concentration of J147 in plasma during surgery): 0.233 ng/mL
Structure (SMILES): COc1cccc(/C=N/N(C(=O)C(F)(F)F)c2ccc(C)cc2C)c1 [J147]
impaired cognitive aspects after surgery (animal model of POCD; chronic J147 administration): capable of preventing all impaired cognitive aspects after surgery | conditions after surgery (body weight loss, behavior in the OF) (animal model of POCD; chronic treatment): generally improved conditions after surgery
